Experimental data as given in patent EP0569096A1, “Depot preparation” (Akzo Nobel N.V., priority 1992, dated 1993).
Where a name gives a salt, the structure may show the parent alone.

Experiments:
[1] = physchem; details: water
[2] = water solubility of the salts; details: general statement in the disclosure of the invention
[3] = solubility of the crystalline form compared with the amorphous solid; format: physicochemical; details: crystals formed after storage for two weeks at 50° C
Description: (§1) The pamoate salt of EXAMPLE I was stored for two weeks at 50° C, and crystals spontaneously formed. […] Furthermore they were easier to segregate for micronization, and easier to form a suspension with.

[4] = stability of the crystalline form compared with the amorphous solid; format: physicochemical; details: crystals formed after storage for two weeks at 50° C
Description: as §1

SMILES: CN1C[C@H]2c3ccccc3Oc3ccc(Cl)cc3[C@@H]2C1 (relative stereo) [fumarate]
- solubility [1]: 1000 µg/mL

SMILES: CN1C[C@H]2c3ccccc3Oc3ccc(Cl)cc3[C@@H]2C1 (relative stereo) [pamoate salt]
- solubility (in words) [2]: very insoluble

SMILES: CN1C[C@@H]2c3ccccc3Oc3ccc(Cl)cc3[C@H]2C1.O=C(O)c1cc2ccccc2c(Cc2c(O)c(C(=O)O)cc3ccccc23)c1O [crystals]
- solubility relative to the amorphous yellow solid [3]: less soluble
- stability relative to the amorphous yellow solid [4]: more stable

SMILES: CN1CC2c3ccccc3Oc3ccc(Cl)cc3C2C1.CN1CC2c3ccccc3Oc3ccc(Cl)cc3C2C1.O=C(O)c1cc2ccccc2c(Cc2c(O)c(C(=O)O)cc3ccccc23)c1O [hemipamoate]
- solubility (in words) [2]: very insoluble
